Data set [1] concerns human hepatitis C virus (HCV). Details: method as in PMID 23911854. To be noted: at 10 μM; cited from earlier work.
The test system of a further data set is CEM cells. Details: method as in PMID 23911854. Particulars: cited from earlier work.
Data set [2] has as its system HBV. Description: HBV assay in Huh7 cells transfected with pCI_HBVpg1820, intracapsid viral DNA by real-time PCR. Type of data set: cell-based, hepatitis B virus (HBV). Particulars: for inhibition at 10 µM: Hepatitis B virus, Huh-7, 96 h. As to the method: In Huh7 cells: antiviral activity against HBV in cell culture was measured as previously described. Briefly, Huh7 cells were transfected with plasmid pCI_HBVpg1820 containing 1.1 unit of HBV genome under the control of a human cytomegalovirus (CMV) promoter. The drugs were stored at 1000× in DMSO at −20 °C. For each experiment, the drugs were diluted in DMEM cell culture medium (Thermo Fisher Scientific, Artenay, France) to a final concentration of 10 μM. All drugs were tested in triplicate in two independent experiments. After 4 days of culture, intracapsid viral DNA was quantified by duplex real-time PCR, using primers described elsewhere, on a LightCycler 480 II apparatus (Roche Diagnostics France, Meylan, France) using TaqMan Universal PCR Mastermix II without UNG (Thermo Fisher Scientific, Artenay, France). Cells were quantified using primers by real-time PCR, using primers HPRT1_F (5′-[…]) and HPRT1_R (5′-[…]), on a LightCycler 480 II apparatus (Roche) using a LightCycler® 480 SYBR Green I Master (Roche Diagnostics France, Meylan, France). Cycling reactions were performed with the following parameters: 5 min at 95 °C, followed by 45 cycles of 10 s at 95 °C, 15 s at 60 °C, 10 s at 72 °C. The inhibition of HBV replication (%) and cell culture viability (%) were quantified using the following formulas. Inhibition of HBV replication (%)=1− HBV DNA copy numberDrug/HBV DNA copy numberCell culture medium Cell viability (%)= HPRT1 DNA copy numberDrug/HPRT1 DNA copy numberCell culture medium
(In qPCR the cycle at which signal appears reflects the starting amount.)

In data set [3] the test system is HBV. As to the kind of experiment: HBV assay in HepAD38 cells, real-time PCR for HBV DNA in supernatant. Type of data set: cell-based. To be noted: Hepatitis B virus, 168 h, 7 days. As to the method:
In HepAD38 cells were seeded at 50,000 cells/well in collagen-coated 96-well plates. Test compounds or 2′,3′-didéoxy-3′-thiacytidin (3TC) (control) were added to HepAD38 cells to a final concentration of 10 μM.
Real-Time PCR for HBV DNA. The experiment lasted 7 days. On day 7, total DNA was purified from the supernatant using a commercially available kit (DNeasy 96 Blood & Tissue kit, Qiagen). The HBV DNA was amplified in a real-time PCR assay using a LightCycler 480 (Roche) as described elsewhere. All samples were tested in duplicate in two to three independent experiments. Analysis: The concentration of compound that inhibited HBV DNA replication by 50% (EC50) was determined by linear regression.

The test system of a further data set is HIV-1 LAI. Description: HIV assay in human PBM cells infected with HIV-1 LAI, RT quantification. Type of data set: cell-based. Particulars: Human immunodeficiency virus 1, PBMC; 10 μM, PBM cells, HIV-1 LAI. As to the method: The assay was performed as described by Schinazi et al. with minor modifications. […] The supernatants were harvested, and the HIV-1 RT was quantified.

A short description of another data set: in vitro. Type of data set: cell-based. Particulars: human; PBM cells; read-out: MTS Cytotoxicity (IC50, μM) PBM. As for the experimental part: (§1) Assays were performed in human peripheral blood mononuclear (PBM) and human liver (HepG2) cells via MTS assay using the CellTiter 96® Non-Radioactive Cell Proliferation (Promega) kit as previously described^3. Cytotoxicity was expressed as the concentration of test compounds that inhibited cell proliferation by 50% (IC50) and calculated using the Chou and Talalay method.

Data set [4] in a line: Cytotoxicity MTS assay in HepG2 cells. Type of data set: cell-based. Particulars: human. As to the method: as §1
In general terms: Tetrazolium dyes change colour on reduction, which living cells bring about.

The test system of data set [5] is SARS-CoV-2 strain BavPat1. Description: SARS-CoV-2 assay in Vero E6 cells (CellTiter-Blue). Particulars: 10 μM. Background: Resazurin is reduced to fluorescent resorufin, in cell work by metabolically active cells.
The nature of data set [6]: Cell culture viability in the Huh7 HBV assay (HPRT1 DNA copy number). Particulars: human.
Where [7] appears, read: read-out: HBV % Inhibition Huh7, 10 μM, Huh7 cells, 4 days.
Setting [8] is: 10 μM, Huh7 cells, 4 days, read-out: HBV % Inhibition Huh7.

Several values for one entry are separate records, joined by “and”; a condition that tells them apart may be missing. Equal entries are not always repeated.

The text below walks through data of article PMC7967160, “Synthesis and Antiviral Evaluation of (1,4-Disubstituted-1,2,3-Triazol)-(E)-2-Methyl-but-2-Enyl Nucleoside Phosphonate Prodrugs” (Molecules, 2021).

On to `CCCc1ccc(-c2cn(C/C=C/CP(=O)(OCOC(=O)C(C)(C)C)OCOC(=O)C(C)(C)C)nn2)cc1` [Compound 5], for which the “% of inhibition (HCV)” value in data set [1] is 95.6% and 95%. Moreover, the CC50 in the data set on CEM cells was 55.3 µM.
For the compound `C/C(=C\CP(=O)(OCOC(=O)OC(C)C)OCOC(=O)OC(C)C)Cn1cc(C(N)=O)nn1` [Compound 11j, [[(E)-4-(4-Carbamoyltriazol-1-yl)-3-methyl-but-2-enyl]-(isopropoxycarbonyloxymethoxy)phosphoryl]oxymethyl isopropyl carbonate], the “HBV % Inhibition Huh7” value in the data set on HBV [2] (10 μM, Huh7 cells, 4 days) is on record as 40%. The inhibition at 10 µM in the data set on HBV [2] (setting [7]) was greater than 40%; with HBV [3] it was 31.3%; in the data set on HIV-1 LAI it was less than 1%. For the same compound, the results for the IC50 (in “in vitro”; in data set [4]) were 76.8 µM and greater than 100 µM, respectively. The “SARS-CoV-2 % Inhibition Vero E6” value in data set [5] is less than 1%. In [6], this compound returned a viability at 4 days, 10 µM of 100%.
On to `CCCCCCCC(=O)NCc1cn(C/C(C)=C/CP(=O)(OCOC(=O)OC(C)C)OCOC(=O)OC(C)C)nn1` [Compound 11k, [[(E)-4-(4-Octanoylaminomethyltriazol-1-yl)-3-methyl-but-2-enyl]-(isopropoxycarbonyloxymethoxy)phosphoryl]oxymethyl isopropyl carbonate], for which the inhibition at 10 µM with HBV [2] (setting [8]) was less than 1%; in the data set with HBV [3] it was 6.1%; in the data set on HIV-1 LAI, 42%. Further, the figures for the IC50 (in “in vitro”; in data set [4]) were 51.5 µM and 57.3 µM, respectively. In addition, in data set [5], the “SARS-CoV-2 % Inhibition Vero E6” value is given as 5%. The compound also had a viability at 4 days, 10 µM in data set [6] of 100%.
`CCCCCCCCCCCCCCCCOCCCOP(=O)(C/C=C(\C)Cn1cc(-c2ccc(CCCCC)cc2)nn1)OCOC(=O)OC(C)C` (stereo not drawn) [Compound 15c, [3-Hexadecyloxypropoxy-[(E)-3-methyl-4-[4-(4-pentylphenyl)triazol-1-yl]but-2-enyl]phosphoryl]oxymethyl isopropyl carbonate]: the inhibition at 10 µM in the data set on HBV [2] (setting [8]) is 14%; in the data set on HBV [3], 28.8%; in the data set with HIV-1 LAI, 28.2%. Also, the IC50 was 50.5 µM in “in vitro” and greater than 100 µM in data set [4]. Moreover, the “SARS-CoV-2 % Inhibition Vero E6” value in [5] is less than 1%. In [6], this compound came in with a viability at 4 days, 10 µM of 47%.
For the compound `CCOC(=O)c1cn(C/C(C)=C/CP(=O)(OCOC(=O)OC(C)C)OCOC(=O)OC(C)C)nn1` [Compound 11o, Ethyl-1-[(E)-4-[bis(isopropoxycarbonyloxymethoxy)phosphoryl]-2-methyl-but-2-enyl]triazole-4-carboxylate], the inhibition at 10 µM in the data set with HBV [2] (setting [8]) was less than 1%; in the data set on HBV [3] it was 41.2%; with HIV-1 LAI, 22.4%. Besides, the IC50 in the data set “in vitro” was 67.5 µM; in [4] it was greater than 100 µM. Also, in data set [5], the “SARS-CoV-2 % Inhibition Vero E6” value is reported as less than 1%. For the same compound, the viability at 4 days, 10 µM in [6] turned out to be 60%.
Regarding `CCCCCc1ccc(-c2cn(C/C(C)=C/CP(=O)(OCOC(=O)OC(C)C)OCOC(=O)OC(C)C)nn2)cc1` [Compound 11c, [[(E)-4-[4-(4-Pentylphenyl)triazol-1-yl]-3-methyl-but-2-enyl]-(isopropoxycarbonyloxymethoxy)phosphoryl]oxymethyl isopropyl carbonate], in the data set with HBV [2] (10 μM, Huh7 cells, 4 days), the “HBV % Inhibition Huh7” value worked out at 42%. For the same compound, the inhibition at 10 µM in the data set with HBV [2] (setting [7]) was greater than 40%; in the data set on HBV [3] it was less than 1%; with HIV-1 LAI, 44.4%. The IC50 worked out at 47.8 µM in “in vitro” and 51.8 µM in data set [4]. In addition, the “SARS-CoV-2 % Inhibition Vero E6” value in data set [5] is recorded as less than 1%. This compound gave a viability at 4 days, 10 µM in [6] of 89%.
Regarding `C/C(=C\CP(=O)(OCOC(=O)OC(C)C)OCOC(=O)OC(C)C)Cn1cc(C(C)(C)C)nn1` [Compound 11g, [[(E)-4-(4-tert-Butyltriazol-1-yl)-3-methyl-but-2-enyl]-(isopropoxycarbonyloxymethoxy)phosphoryl]oxymethyl isopropyl carbonate], the values for the inhibition at 10 µM with HBV [2] (setting [8]), in the data set with HBV [3] and with HIV-1 LAI were 10%, 17.3% and 12.3%, respectively. The IC50 in the data set “in vitro” was 28.3 µM; in data set [4], greater than 100 µM. The “SARS-CoV-2 % Inhibition Vero E6” value in data set [5] was less than 1%. This compound also displayed a viability at 4 days, 10 µM in data set [6] of 79%.
Turning to `C/C(=C\CP(=O)(OCOC(=O)OC(C)C)OCOC(=O)OC(C)C)Cn1cc(C=O)nn1` [Compound 11i, [[(E)-4-(4-Formyltriazol-1-yl)-3-methyl-but-2-enyl]-(isopropoxycarbonyloxymethoxy)phosphoryl]oxymethyl isopropyl carbonate], the inhibition at 10 µM with HBV [2] (setting [8]) is 33%; in the data set with HBV [3], 6.1%; in the data set with HIV-1 LAI, 28.4%. In addition, the figures for the IC50 (in “in vitro”; in [4]) were 75.1 µM and greater than 100 µM, respectively. Also, the “SARS-CoV-2 % Inhibition Vero E6” value in data set [5] is less than 1%. The same compound returned a viability at 4 days, 10 µM in [6] of 95%.
In the case of `COC(=O)c1cn(C/C(C)=C/CP(=O)(OCOC(=O)OC(C)C)OCOC(=O)OC(C)C)nn1` [Compound 11n, Methyl-1-[(E)-4-[bis(isopropoxycarbonyloxymethoxy)phosphoryl]-2-methyl-but-2-enyl]triazole-4-carboxylate], the figures for the inhibition at 10 µM in the data set with HBV [2] (setting [8]), with HBV [3] and with HIV-1 LAI were 28%, 3.9% and less than 1%, respectively. Also, the IC50 in the data set “in vitro” is 40.9 µM; in data set [4], greater than 100 µM. Also, the “SARS-CoV-2 % Inhibition Vero E6” value in data set [5] is recorded as less than 1%. This compound also displayed a viability at 4 days, 10 µM in data set [6] of 60%.
As for `CCCCc1ccc(-c2cn(C/C(C)=C/CP(=O)(OCOC(=O)OC(C)C)OCOC(=O)OC(C)C)nn2)cc1` [Compound 11b, [[(E)-4-[4-(4-Butylphenyl)triazol-1-yl]-3-methyl-but-2-enyl]-(isopropoxycarbonyloxymethoxy)phosphoryl]oxymethyl isopropyl carbonate], the inhibition at 10 µM in the data set with HBV [2] (setting [8]) is 25%; in the data set with HBV [3], 14.4%; in the data set on HIV-1 LAI, less than 1%. The IC50 in “in vitro” worked out at 19.4 µM; in data set [4] it was 16.2 µM. In data set [5], the “SARS-CoV-2 % Inhibition Vero E6” value is given as less than 1%. In data set [6], this compound returned a viability at 4 days, 10 µM of 88%.
Regarding `C/C(=C\CP(=O)(OCOC(=O)OC(C)C)OCOC(=O)OC(C)C)Cn1cc(CO)nn1` [Compound 11h, [[(E)-4-[4-(Hydroxymethyl)triazol-1-yl]-3-methyl-but-2-enyl]-(isopropoxycarbonyloxymethoxy)phosphoryl]oxymethyl isopropyl carbonate], the inhibition at 10 µM in the data set on HBV [2] (setting [8]) is 28%; with HBV [3], 15.1%; in the data set on HIV-1 LAI, less than 1%. For the same compound, the IC50 in “in vitro” is 76.4 µM; in data set [4] it was greater than 100 µM. Moreover, in data set [5], the “SARS-CoV-2 % Inhibition Vero E6” value came to 12%. In [6], this compound displayed a viability at 4 days, 10 µM of 100%.
In the case of `CNC(=O)c1cn(C/C(C)=C/CP(=O)(OCOC(=O)OC(C)C)OCOC(=O)OC(C)C)nn1` [Compound 11p, [[(E)-4-(4-Methylcarbamoyltriazol-1-yl)-3-methyl-but-2-enyl]-(isopropoxycarbonyloxymethoxy)phosphoryl]oxymethyl isopropyl carbonate], the inhibition at 10 µM is 14% in the data set on HBV [2] (setting [8]), less than 1% in the data set with HBV [3] and 36.4% with HIV-1 LAI. Moreover, the figures for the IC50 (in the data set “in vitro”; in data set [4]) were 78.3 µM and greater than 100 µM, respectively. The “SARS-CoV-2 % Inhibition Vero E6” value in data set [5] is recorded as less than 1%. In data set [6], this compound displayed a viability at 4 days, 10 µM of 54%.

The CC50 is the concentration that lowers cell viability or growth by half. Broadly, the inhibition is the percentage by which the read-out fell short of the control. For orientation: IC50 means the concentration that gives 50% inhibition. What is called viability is a per cent measure of how many cells are alive, often set against a control. A high value points to better survival.
